Assay results from ChEMBL document CHEMBL4840311, “Discovery of novel nitrogenous heterocyclic-containing quinoxaline-1,4-di-N-oxides as potent activator of autophagy in M.tb-infected macrophages” (Eur J Med Chem, 2021).
pIC50: −log10 of the molar value. Values after ≈ are worked out from the molar mass of the structure shown.

Experiments:
J774.A1 = test: Cytotoxicity against mouse J774.A1 cells assessed as reduction in cell viability measured after 72 hrs by MTT assay; format: cell-based; conditions: J774.A1, 72 h
[1] = tested on: Mycobacterium tuberculosis; test: Antimycobacterial activity against Mycobacterium tuberculosis H37Rv ATCC 27294 assessed as inhibition of bacterial growth measured after 5 days by microplate alamar blue assay; format: functional; conditions: H37Rv ATCC 27294, 120 h, time 5 day
Vero = test: Cytotoxicity against African green monkey Vero cells assessed as reduction in cell viability measured after 72 hrs by MTT assay; format: cell-based; conditions: Chlorocebus sabaeus
[2] = Selectivity index, ratio of IC50 for African green monkey Vero cells measured after 72 hrs by MTT assay to MIC for antimycobacterial activity against Mycobacterium tuberculosis H37Rv ATCC 27294 assessed as inhibition of bacterial growth measured after 5 days by microplate alamar blue assay; format: toxicity; conditions: read-out: Selectivity Index
[3] = tested on: Mycobacterium tuberculosis; test: Antimycobacterial activity against Mycobacterium tuberculosis H37Rv infected in mouse J774.A1 cells assessed as log reduction of bacterial growth at 1X to 40X MIC measured after 4 days by visual colony counting analysis; format: functional; conditions: time 4 day
[4] = tested on: Mycobacterium tuberculosis; test: Antimycobacterial activity against Mycobacterium tuberculosis H37Rv infected in mouse J774.A1 cells assessed as log reduction of bacterial growth at 1X MIC measured after 1 days by visual colony counting analysis; format: functional; conditions: time 1 day
[5] = tested on: Mycobacterium tuberculosis; test: Antimycobacterial activity against Mycobacterium tuberculosis H37Rv infected in mouse J774.A1 cells assessed as log reduction of bacterial growth at 10X MIC measured after 1 days by visual colony counting analysis; format: functional; conditions: time 1 day

Structure (SMILES) | MIC [1] | pIC50 (Vero) | selectivity ratio at 72 hrs [2] | further results
Cc1c(C(=O)OC(C)C)[n+]([O-])c2cc(F)c(-n3ccnc3)cc2[n+]1[O-] | 2 µg/mL (≈ 5.78 µM) | 3.95 | 19.5 | pIC50 (J774.A1): 4.11
CC(=O)c1c(C)[n+]([O-])c2cc(N3CCNCC3)c(F)cc2[n+]1[O-] | 4 µg/mL (≈ 12.5 µM) | – | – | –
Cc1c(C(=O)CC(C)C)[n+]([O-])c2ccccc2[n+]1[O-] | 64 µg/mL (≈ 246 µM) | – | – | –
CCOC(=O)c1c(C(F)(F)F)[n+]([O-])c2cc(N3CCNCC3)c(F)cc2[n+]1[O-] | 0.5 µg/mL (≈ 1.24 µM) | 4.50 | 25.3 | –
CCCC(=O)c1c(C)[n+]([O-])c2cc(N3CCNCC3)c(F)cc2[n+]1[O-] | 16 µg/mL (≈ 45.9 µM) | – | – | –
Cc1c(C(=O)CC(C)C)[n+]([O-])c2cc(F)c(N3CCNCC3)cc2[n+]1[O-] | 32 µg/mL (≈ 88.3 µM) | – | – | –
CCOC(=O)c1c(C)[n+]([O-])c2cc(N3CCOCC3)c(F)cc2[n+]1[O-] | 64 µg/mL (≈ 182 µM) | – | – | –
CC(=O)c1c(C)[n+]([O-])c2cc(N3CCNC(C)C3)c(F)cc2[n+]1[O-] (stereo not given) | 16 µg/mL (≈ 47.9 µM) | – | – | –
CCCC(=O)c1c(C)[n+]([O-])c2ccccc2[n+]1[O-] | 64 µg/mL (≈ 260 µM) | – | – | –
CCOC(=O)c1c(C)[n+]([O-])c2cc(-n3cncn3)c(F)cc2[n+]1[O-] | 0.125 µg/mL (≈ 0.375 µM) | 3.81 | 412 | pIC50 (J774.A1): 4.11
Cc1c(C(=O)OCc2ccccc2)[n+]([O-])c2cc(F)c(-n3ccnc3)cc2[n+]1[O-] | 0.25 µg/mL (≈ 0.634 µM) | 3.97 | 169 | pIC50 (J774.A1): 4.11; log(activity) [3]: 2.15; log(activity) [4]: 0.04; log(activity) [5]: 0.18
CCOC(=O)c1c(C(F)(F)F)[n+]([O-])c2cc(-n3cncn3)c(F)cc2[n+]1[O-] | 0.25 µg/mL (≈ 0.646 µM) | 4.45 | 54.8 | –
CCOC(=O)c1c(C)[n+]([O-])c2cc(N3CCNC(C)C3)c(F)cc2[n+]1[O-] (stereo not given) | 8 µg/mL (≈ 22 µM) | – | – | –
Cc1c(C(=O)OCc2ccccc2)[n+]([O-])c2cc(F)c(F)cc2[n+]1[O-] | 0.5 µg/mL (≈ 1.44 µM) | 4.26 | 38.3 | –
CC(=O)c1c(C(F)(F)F)[n+]([O-])c2cc(-n3ccnc3)c(F)cc2[n+]1[O-] | 0.25 µg/mL (≈ 0.702 µM) | 4.33 | 66.2 | –
